Results published in PubChem BioAssay AID248 (DTP/NCI, 2004).
“And” between values parts separate entries of the source, which are not always exact repeats. Identical values can stand only once. Toxic doses and inconclusive results are not listed. No stated cut-off is given here; in the data, active means T/C of 150% or more; inactive means T/C below 125%.

Tested on: L1210 leukemia ip in BDF1 mice, survival T/C
Assay: NCI In Vivo Anticancer Drug Screen. Data for tumor model L1210 Leukemia (intraperitoneal) in B6D2F1 (BDF1) mice
Details: endpoint: mean survival time, higher = longer survival
Method in brief: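 In this screen, tumor-bearing mice given compound are compared to those given vehicle, and their survival values are reported as a treated-to-control quotient.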

[1] = dose: 100.0 mg/kg/injection, schedule: Q01DX001 (ip), vehicle: other
[2] = dose: 200.0 mg/kg/injection, schedule: Q01DX001 (ip), vehicle: other
[3] = dose: 400.0 mg/kg/injection, schedule: Q01DX001 (ip), vehicle: other
[4] = dose: 50.0 mg/kg/injection, schedule: Q01DX009 (ip), vehicle: saline with Tween-80
[5] = dose: 100.0 mg/kg/injection, schedule: Q01DX009 (ip), vehicle: saline
[6] = dose: 100.0 mg/kg/injection, schedule: Q04DX003 (ip), vehicle: saline
[7] = dose: 200.0 mg/kg/injection, schedule: Q01DX009 (ip), vehicle: saline
[8] = dose: 200.0 mg/kg/injection, schedule: Q04DX003 (ip), vehicle: saline
[9] = dose: 400.0 mg/kg/injection, schedule: Q04DX003 (ip), vehicle: saline
[10] = dose: 100.0 mg/kg/injection, schedule: Q04DX002 (ip), vehicle: Klucel (hydroxypropylcellulose) (HPC)
[11] = dose: 100.0 mg/kg/injection, schedule: Q01DX009 (ip), vehicle: Klucel (hydroxypropylcellulose) (HPC)
[12] = dose: 200.0 mg/kg/injection, schedule: Q01DX009 (ip), vehicle: Klucel (hydroxypropylcellulose) (HPC)
[13] = dose: 400.0 mg/kg/injection, schedule: Q01DX009 (ip), vehicle: Klucel (hydroxypropylcellulose) (HPC)
[14] = dose: 100.0 mg/kg/injection, schedule: Q01DX001 (ip), vehicle: carboxymethylcellulose (CMC)
[15] = dose: 200.0 mg/kg/injection, schedule: Q01DX001 (ip), vehicle: carboxymethylcellulose (CMC)
[16] = dose: 400.0 mg/kg/injection, schedule: Q01DX001 (ip), vehicle: carboxymethylcellulose (CMC)

Measured: T/C

O=[N+]([O-])c1ccccc1N=Nc1c(O)[nH]c2ccccc12
inactive: [1] 102 % of control | [2] 98 % of control | [3] 102 % of control

OC(c1ccccc1)(c1ccccc1)c1ccsc1
inactive: [4] 86 % of control | dose: 100.0 mg/kg/injection, schedule: Q01DX009 (ip), vehicle: saline with Tween-80 86 % of control

CC12CC3CC(Br)(C1)CC(C(=O)O)(C3)C2 (stereo not given)
inactive: dose: 50.0 mg/kg/injection, schedule: Q01DX009 (ip), vehicle: saline 103 % of control | [5] 96 % of control | [6] 103 % of control | [7] 91 % of control | [8] 101 % of control | [9] 110 % of control

Clc1ccc2nnnn2n1
inactive: dose: 12.5 mg/kg/injection, schedule: Q01DX009 (ip), vehicle: saline with Tween-80 97 % of control | dose: 25.0 mg/kg/injection, schedule: Q01DX009 (ip), vehicle: saline with Tween-80 100 % of control | [4] 110 % of control | dose: 62.5 mg/kg/injection, schedule: Q04DX003 (ip), vehicle: saline 109 % of control | [10] 115 % of control | dose: 125.0 mg/kg/injection, schedule: Q04DX003 (ip), vehicle: saline 109 % of control | dose: 200.0 mg/kg/injection, schedule: Q04DX002 (ip), vehicle: Klucel (hydroxypropylcellulose) (HPC) 115 % of control | dose: 400.0 mg/kg/injection, schedule: Q04DX002 (ip), vehicle: Klucel (hydroxypropylcellulose) (HPC) 112 % of control

c1ccc(C(CCN2CCCC2)c2ccccn2)cc1 (stereo not given)
inactive: dose: 44.0 mg/kg/injection, schedule: Q01DX Z (ip), vehicle: saline 90 % of control | dose: 66.0 mg/kg/injection, schedule: Q01DX Z (ip), vehicle: saline 89 % of control

C#CCOCC(O)CCl (stereo not given)
inactive: dose: 75.0 mg/kg/injection, schedule: Q01DX001 (ip), vehicle: acetone 101 % of control | dose: 150.0 mg/kg/injection, schedule: Q01DX001 (ip), vehicle: acetone 92 % of control | dose: 300.0 mg/kg/injection, schedule: Q01DX001 (ip), vehicle: acetone 89 % of control

[Cl][Sn]([c]1ccccc1)([c]1ccccc1)[c]1ccccc1
inactive: dose: 2.5 mg/kg/injection, schedule: Q01DX009 (ip), vehicle: Klucel (hydroxypropylcellulose) (HPC) 89 % of control | dose: 5.0 mg/kg/injection, schedule: Q01DX001 (ip), vehicle: saline 95 % of control | dose: 5.0 mg/kg/injection, schedule: Q01DX009 (ip), vehicle: Klucel (hydroxypropylcellulose) (HPC) 97 % of control and 106 % of control | dose: 5.0 mg/kg/injection, schedule: Q04DX003 (ip), vehicle: Klucel (hydroxypropylcellulose) (HPC) 95 % of control | dose: 10.0 mg/kg/injection, schedule: Q01DX001 (ip), vehicle: saline 101 % of control | dose: 10.0 mg/kg/injection, schedule: Q04DX003 (ip), vehicle: Klucel (hydroxypropylcellulose) (HPC) 90 % of control | dose: 20.0 mg/kg/injection, schedule: Q01DX001 (ip), vehicle: saline 95 % of control | dose: 40.0 mg/kg/injection, schedule: Q01DX001 (ip), vehicle: saline 91 % of control

CCOC(=O)c1cnc(SC)nc1N(CC)c1ccccc1
inactive: dose: 100.0 mg/kg/injection, schedule: Q01DX009 (ip), vehicle: gum acacia 105 % of control | dose: 100.0 mg/kg/injection, schedule: Q04DX003 (ip), vehicle: gum acacia 102 % of control | dose: 200.0 mg/kg/injection, schedule: Q01DX009 (ip), vehicle: gum acacia 100 % of control | dose: 200.0 mg/kg/injection, schedule: Q04DX003 (ip), vehicle: gum acacia 102 % of control | dose: 400.0 mg/kg/injection, schedule: Q01DX009 (ip), vehicle: gum acacia 102 % of control | dose: 400.0 mg/kg/injection, schedule: Q04DX003 (ip), vehicle: gum acacia 102 % of control

COC1CCC(NC(=O)NCCCl)CC1 (stereo not given)
inactive: dose: 100.0 mg/kg/injection, schedule: Q01DX001 (ip), vehicle: Klucel (hydroxypropylcellulose) (HPC) 95 % of control | dose: 100.0 mg/kg/injection, schedule: Q04DX003 (ip), vehicle: Klucel (hydroxypropylcellulose) (HPC) 103 % of control | dose: 200.0 mg/kg/injection, schedule: Q01DX001 (ip), vehicle: Klucel (hydroxypropylcellulose) (HPC) 102 % of control | dose: 200.0 mg/kg/injection, schedule: Q04DX003 (ip), vehicle: Klucel (hydroxypropylcellulose) (HPC) 97 % of control | dose: 400.0 mg/kg/injection, schedule: Q01DX001 (ip), vehicle: Klucel (hydroxypropylcellulose) (HPC) 95 % of control | dose: 400.0 mg/kg/injection, schedule: Q04DX003 (ip), vehicle: Klucel (hydroxypropylcellulose) (HPC) 97 % of control

Cc1ccc(Nc2c3ccccc3nc3ccccc23)cc1C
inactive: dose: 25.0 mg/kg/injection, schedule: Q01DX009 (ip), vehicle: Klucel (hydroxypropylcellulose) (HPC) 94 % of control | dose: 50.0 mg/kg/injection, schedule: Q01DX009 (ip), vehicle: Klucel (hydroxypropylcellulose) (HPC) 91 % of control | [11] 102 % of control | [10] 100 % of control

COc1ccc(OC)c(NC(=O)NNc2c([N+](=O)[O-])cc(C(F)(F)F)cc2[N+](=O)[O-])c1
inactive: dose: 100.0 mg/kg/injection, schedule: Q01DX009 (ip), vehicle: other 97 % of control | dose: 200.0 mg/kg/injection, schedule: Q01DX009 (ip), vehicle: other 89 % of control

O=C(O)COc1cccc([N+](=O)[O-])c1
inactive: [11] 96 % of control | [12] 98 % of control | [13] 94 % of control

COC(=O)C1CNc2ccccc2C1=O (stereo not given)
inactive: dose: 50.0 mg/kg/injection, schedule: Q01DX001 (ip), vehicle: carboxymethylcellulose (CMC) 97 % of control | [14] 92 % of control | [15] 97 % of control | [16] 92 % of control

CCc1ccccc1NC(=O)NCc1ccco1
inactive: [11] 101 % of control | [12] 92 % of control

CC(N)CN(C)C (stereo not given)
inactive: [5] 98 % of control | [6] 99 % of control | [7] 106 % of control | [8] 100 % of control | [9] 96 % of control

CCOC(=O)c1c[nH]c2c(Cl)ccc(-c3ccccc3)c2c1=O
inactive: dose: 100.0 mg/kg/injection, schedule: Q01DX001 (ip), vehicle: saline with Tween-80 98 % of control | dose: 200.0 mg/kg/injection, schedule: Q01DX001 (ip), vehicle: saline with Tween-80 96 % of control | dose: 400.0 mg/kg/injection, schedule: Q01DX001 (ip), vehicle: saline with Tween-80 93 % of control

NC(Cc1nccn1Cc1ccccc1)C(=O)O (stereo not given)
inactive: dose: 75.0 mg/kg/injection, schedule: Q04DX002 (ip), vehicle: saline with Tween-80 104 % of control | dose: 150.0 mg/kg/injection, schedule: Q04DX002 (ip), vehicle: saline with Tween-80 112 % of control | dose: 300.0 mg/kg/injection, schedule: Q04DX002 (ip), vehicle: saline with Tween-80 119 % of control

O=c1c(CO)c[nH]cc1CO
inactive: dose: 100.0 mg/kg/injection, schedule: Q01DX001 (ip), vehicle: saline 101 % of control | dose: 200.0 mg/kg/injection, schedule: Q01DX001 (ip), vehicle: saline 103 % of control | dose: 400.0 mg/kg/injection, schedule: Q01DX001 (ip), vehicle: saline 107 % of control

C(=N\N1CCN(/N=C/c2cccc3ccccc23)CC1)/c1cccc2ccccc12
inactive: [14] 93 % of control | [15] 90 % of control | [16] 88 % of control

c1ccc2cc3nc4c(nc3cc2c1)[nH]c1ccccc14
inactive: [1] 87 % of control | [2] 95 % of control | [3] 95 % of control

COc1ccccc1OC(=O)c1ccccc1OC(=O)c1cccnc1
inactive: dose: 100.0 mg/kg/injection, schedule: Q04DX002 (ip), vehicle: saline with Tween-80 101 % of control | dose: 200.0 mg/kg/injection, schedule: Q04DX002 (ip), vehicle: saline with Tween-80 96 % of control | dose: 400.0 mg/kg/injection, schedule: Q04DX002 (ip), vehicle: saline with Tween-80 89 % of control

Cc1ccc([N+](=O)[O-])cc1NC(=O)OCc1ccco1
inactive: [11] 103 % of control | [12] 97 % of control | [13] 94 % of control
